One assay has as its target rat orexin 1 receptor (Rattus norvegicus, UniProt P56718). Nature of the assay: Rat orexin 1 receptor radioligand binding (competitive). The settings on record: HEK293 cells stably expressing rat orexin 1 receptor; 4 nM radioligand; averages of 2-20 runs; read-out: rOX1 Ki. The procedure, abridged:
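Competition binding used HEK293 cells expressing rat OX1 or CHO cells expressing human OX1, with 4 nM final [3H]-labelled thiazolyl-oxadiazolyl-pyrrolidinyl methanone radioligand in PBS. Compounds were tested at 7 concentrations (0.1 nM–10 μM) for 60 min at room temperature, then filtered; 10 μM almorexant defined nonspecific binding. Ki was derived from the one-site IC50 and the radioligand Kd.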

The next assay concerns the target human orexin 1 receptor (Homo sapiens (Human), UniProt O43613). Nature of the assay: Human orexin 1 receptor radioligand binding (competitive). The settings on record: CHO cells stably expressing human orexin 1 receptor; 4 nM radioligand; averages of 2-20 runs; read-out: hOX1 Ki. As to the method:
The in vitro affinity of the compounds of the invention for the rat/human orexin 1 and human orexin 2 receptors was determined by competitive radioligand binding using [^3H](1-(5-(2-fluoro-phenyl)-2-methyl-thiazol-4-yl)-1-((S)-2-(5-phenyl-(1,3,4)oxadiazol-2-ylmethyl)-pyrrolidin-1-yl)-methanone) (Langmead et al., 2004) and [^3H]EMPA (n-ethyl-2[96-methoxy-pyridin-3-yl)-(toluene-2-sulfonyl)-amino]-N-pyridin-3-ylmethyl acetamide), respectively (Langmead et al., 2004, British Journal of Pharmacology 141:340-346; Malherbe et al., 2004, British Journal of Pharmacology 156:1326-41).
Data are analyzed using pc-Sandy macro and graphed on Graphpad Prism 5. For analysis, each concentration point is averaged from triplicate values and the averaged values are plotted on Graphpad Prism. The IC50 was determined by applying the following equation (GraphPad Prism 5.0, San Diego) for one site competition where X=log (concentration) and Y=specific binding. Top denotes the total [^3H]— (1-(5-(2-fluoro-phenyl)-2-methyl-thiazol-4-yl)-1-((S)-2-(5-phenyl-(1,3,4)oxadiazol-2-ylmethyl)-pyrrolidin-1-yl)-methanone) binding, bottom denotes the nonspecific [^3H]— (1-(5-(2-fluoro-phenyl)-2-methyl-thiazol-4-yl)-1-((S)-2-(5-phenyl-(1,3,4)oxadiazol-2-ylmethyl)-pyrrolidin-1-yl)-methanone) binding. Graphpad Prism calculates Ki value from IC50 and the pre-determined Kd values for [^3H]— (1-(5-(2-fluoro-phenyl)-2-methyl-thiazol-4-yl)-1-((S)-2-(5-phenyl-(1,3,4)oxadiazol-2-ylmethyl)-pyrrolidin-1-yl)-methanone) and [^3H]-EMPA. The Ki for each compound is then uploaded into 3DX. Each run comprises individual compounds in triplicate. The data in Table 1 and Table 2 represent averages from between 2-20 runs
Rat and Human Orexin 1 Receptor Radioligand Binding Studies
Human Embryonic Kidney 293 cells (HEK293) stably expressing rat orexin 1 receptor (Genebank accession number NM_001525) or Chinese ovary cells (CHO) stably expressing human orexin 1 receptor (Genebank accession number […]) were grown to confluency in DMEM (Hyclone, cat # SH30022), 10% FBS, 1× Pen/Strep, 1× sodium pyruvate, 10 mM HEPES, 600 μg/mL G418 and DMEM/F12 (Gibco, Cat #11039), 10% FBS, 1× Pen/Strep, 600 μg/mL G418 media, respectively on 150 cm^2 tissue culture plates, washed with 5 mM EDTA in PBS (HyClone Dulbecco's Phosphate Buffered Saline 1× with Calcium and Magnesium, Cat # SH30264.01, hereafter referred to simply as PBS) and scraped into 50 ml tubes. After centrifugation (2K×G, 5 min at 4° C.), the supernatant was aspirated and the pellets frozen and stored at −80° C. Cells were resuspended in PBS in the presence of 1 tablet of protease inhibitor cocktail (Roche, Cat. #11836145001) per 50 mL. […] Competition binding experiments in 96 well polypropylene plates were performed using [^3H]— (1-(5-(2-fluoro-phenyl)-2-methyl-thiazol-4-yl)-1-((S)-2-(5-phenyl-(1,3,4)oxadiazol-2-ylmethyl)-pyrrolidin-1-yl)-methanone) (Moraveck Corporation, specific activity=35.3 Ci/mmol), diluted to a 10 nM concentration in PBS (4 nM final). Compounds were solubilized in 100% DMSO (Acros Organics, Cat. #61042-1000) and tested over a range of 7 concentrations (from 0.1 nM to 10 μM). The final concentration of DMSO in the reactions is equal to or less than 0.1%. Total and nonspecific binding was determined in the absence and presence of 10 μM almorexant. The total volume of each reaction is 200 μL (20 μL of diluted compounds, 80 μL of [^3H]— (1-(5-(2-fluoro-phenyl)-2-methyl-thiazol-4-yl)-1-((S)-2-(5-phenyl-(1,3,4)oxadiazol-2-ylmethyl)-pyrrolidin-1-yl)-methanone) diluted in PBS and 100 μL of the cell suspension). Reactions were run for 60 min at room temperature and terminated by filtration through GF/C filter plates (PerkinElmer, Cat. #6005174) presoaked in 0.3% polyethylenimine using the cell harvester (PerkinElmer Filtermate). The plates were washed 3 times by aspirating 30 ml PBS through the plates. Plates were dried in 55° C. oven for 60 min, scintillation fluid was added, and the radioactivity was counted on a Topcount (Packard). […]

The target of a further assay is human orexin 2 receptor (Homo sapiens (Human), UniProt O43614). Nature of the assay: Human orexin 2 receptor radioligand binding ([3H]-EMPA competition). Conditions: HEK293 stably expressing human orexin 2 receptor; 2 nM [3H]-EMPA; averages of 2-20 runs; read-out: hOX2 Ki. Summed up:
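Membranes-free whole HEK293 cells stably expressing human OX2 receptor incubated with [3H]-EMPA and compound (7 concentrations, 0.1 nM–10 μM, ≤0.1% DMSO) for 60 min at room temperature; nonspecific binding with 10 μM almorexant. Filtration and scintillation counting; one-site IC50 converted to Ki using predetermined Kd, triplicates averaged over 2-20 runs.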

Sequence of human orexin 1 receptor (O43613 whole entry): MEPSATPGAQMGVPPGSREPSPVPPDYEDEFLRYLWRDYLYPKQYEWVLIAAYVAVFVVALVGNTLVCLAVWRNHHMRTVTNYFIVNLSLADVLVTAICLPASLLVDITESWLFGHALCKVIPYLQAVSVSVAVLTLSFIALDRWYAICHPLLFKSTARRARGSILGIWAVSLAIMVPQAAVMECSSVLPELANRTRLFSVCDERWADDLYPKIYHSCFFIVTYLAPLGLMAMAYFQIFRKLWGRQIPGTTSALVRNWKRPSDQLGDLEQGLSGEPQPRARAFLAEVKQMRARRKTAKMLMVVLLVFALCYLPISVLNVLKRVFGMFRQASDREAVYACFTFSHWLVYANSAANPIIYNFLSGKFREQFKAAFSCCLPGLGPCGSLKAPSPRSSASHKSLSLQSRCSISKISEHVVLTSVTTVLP
Sequence of human orexin 2 receptor (O43614 whole entry): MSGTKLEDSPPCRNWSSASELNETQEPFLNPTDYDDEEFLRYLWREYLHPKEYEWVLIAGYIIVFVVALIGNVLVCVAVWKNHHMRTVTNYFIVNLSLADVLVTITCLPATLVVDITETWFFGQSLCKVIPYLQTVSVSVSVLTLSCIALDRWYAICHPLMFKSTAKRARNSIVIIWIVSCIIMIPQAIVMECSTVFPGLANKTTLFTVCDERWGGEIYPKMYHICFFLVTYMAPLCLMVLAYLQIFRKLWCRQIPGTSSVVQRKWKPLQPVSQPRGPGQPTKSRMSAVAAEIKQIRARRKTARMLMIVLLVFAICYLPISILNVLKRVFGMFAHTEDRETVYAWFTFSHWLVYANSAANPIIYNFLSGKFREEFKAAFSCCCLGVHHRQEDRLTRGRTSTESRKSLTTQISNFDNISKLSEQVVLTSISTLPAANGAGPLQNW

`Cc1ccc(Br)c(C(=O)N2C(C)C3CC(Nc4cnc(C(F)(F)F)cn4)C2C3)n1` (racemic) [Example 7, (R/S)-(3-bromo-6-methylpyridin-2-yl)(3-methyl-6-((5-(trifluoromethyl)pyrazin-2-yl)amino)-2-azabicyclo[2.2.1]heptan-2-yl)methanone]: the results for the Ki at rat orexin 1 receptor, at human orexin 1 receptor and on human orexin 2 receptor were 125 nM, 144 nM and 1200 nM, respectively.
The matching figures for `CC1C2CC(Oc3ccc(C(F)(F)F)cn3)C(C2)N1C(=O)c1ncccc1-c1ncccn1` (racemic) [Example 14]: 11 nM, 13 nM and 3700 nM.
For the molecule `Cc1ccc(-n2nccn2)c(C(=O)N2C(C)C3CC(Oc4cnc(C(F)(F)F)cn4)C2C3)n1` (racemic) [Example 42, (R/S)-(6-methyl-3-(2H-1,2,3-triazol-2-yl)pyridin-2-yl)(3-methyl-6-((5-(trifluoromethyl)pyrazin-2-yl)oxy)-2-azabicyclo[2.2.1]heptan-2-yl)methanone], the Ki (commonly the equilibrium dissociation constant of an inhibitor or competing ligand from its target) is 55 nM on rat orexin 1 receptor, 45 nM on human orexin 1 receptor and above 10000 nM on human orexin 2 receptor.
With `Cc1ccc(-n2nccn2)c(C(=O)N2C(C)C3CC(Nc4ccc(C(F)(F)F)cn4)C2C3)n1` (racemic) [Example 58, (R/S)-(6-methyl-3-(2H-1,2,3-triazol-2-yl)pyridin-2-yl)(3-methyl-6-((5-(trifluoromethyl)pyridin-2-yl)amino)-2-azabicyclo[2.2.1]heptan-2-yl)methanone], the Ki on rat orexin 1 receptor worked out at 11 nM; at human orexin 1 receptor it was 14 nM; on human orexin 2 receptor it was 236 nM.
For the molecule `Cc1cnc(C(=O)N2C(C)C3CC(Nc4ccc(C(F)(F)F)cn4)C2C3)c(-c2ncccn2)c1` (racemic) [Example 59, (R/S)-(5-methyl-3-(pyrimidin-2-yl)pyridin-2-yl)(3-methyl-6-((5-(trifluoromethyl)pyridin-2-yl)amino)-2-azabicyclo[2.2.1]heptan-2-yl)methanone], the Ki on rat orexin 1 receptor is 20 nM; at human orexin 1 receptor it was 53 nM; on human orexin 2 receptor, 4100 nM.
Regarding `O=C(c1c(F)cccc1-c1ncco1)N1C(CF)C2CC(Oc3ccc(C(F)(F)F)cn3)C1C2` (racemic) [Example 71], the Ki on rat orexin 1 receptor is 32 nM; on human orexin 1 receptor, 29 nM; at human orexin 2 receptor, 1500 nM.
For the molecule `Cc1cnc(C(=O)N2C(CC(C)C)C3CC(Oc4ccc(C(F)(F)F)cn4)C2C3)c(-n2nccn2)c1` (racemic) [Example 208, (R/S)-[2-isobutyl-5-[[5-(trifluoromethyl)-2-pyridyl]oxy]-3-azabicyclo[2.2.1]heptan-3-yl]-[5-methyl-3-(triazol-2-yl)-2-pyridyl]methanone], the Ki at rat orexin 1 receptor was 177 nM; at human orexin 1 receptor it was 170 nM; on human orexin 2 receptor, 418 nM.
Take `CC(C)CC1C2CC(Oc3ccc(C(F)(F)F)cn3)C(C2)N1C(=O)c1ccccc1-c1ncccn1` (racemic) [Example 209, (R/S)-[2-isobutyl-5-[[5-(trifluoromethyl)-2-pyridyl]oxy]-3-azabicyclo[2.2.1]heptan-3-yl]-(2-pyrimidin-2-ylphenyl)methanone]: the Ki at rat orexin 1 receptor is 44 nM; on human orexin 1 receptor, 24 nM; on human orexin 2 receptor it was 3000 nM.
Consider `CC(C)CC1C2CC(Oc3ccc(C(F)(F)F)cn3)C(C2)N1C(=O)c1ccccc1-c1ncc(F)cn1` (racemic) [Example 212, (R/S)-[2-(5-fluoropyrimidin-2-yl)phenyl]-[2-isobutyl-5-[[5-(trifluoromethyl)-2-pyridyl]oxy]-3-azabicyclo[2.2.1]heptan-3-yl]methanone], for which the Ki on rat orexin 1 receptor was 100 nM; on human orexin 1 receptor, 55 nM; at human orexin 2 receptor, 3800 nM.
With `CCC1C2CC(Oc3ccc(C(F)(F)F)cn3)C(C2)N1C(=O)c1ncc(C)cc1-n1nccn1` (racemic) [Example 216, (R/S)-[2-ethyl-5-[[5-(trifluoromethyl)-2-pyridyl]oxy]-3-azabicyclo[2.2.1]heptan-3-yl]-[5-methyl-3-(triazol-2-yl)-2-pyridyl]methanone], the figures for the Ki at rat orexin 1 receptor, at human orexin 1 receptor and at human orexin 2 receptor were 11 nM, 11 nM and 1500 nM, respectively.
Consider `CCC1C2CC(Oc3ccc(C(F)(F)F)cn3)C(C2)N1C(=O)c1cccc(F)c1-c1ncccn1` (racemic) [Example 217, (R/S)-[2-ethyl-5-[[5-(trifluoromethyl)-2-pyridyl]oxy]-3-azabicyclo[2.2.1]heptan-3-yl]-(3-fluoro-2-pyrimidin-2-yl-phenyl)methanone], for which the figures for the Ki on rat orexin 1 receptor, on human orexin 1 receptor and on human orexin 2 receptor were 13 nM, 9 nM and 243 nM, respectively.
As for `C[C@@H]1[C@H]2C[C@@H](Oc3ccc(C(F)(F)F)cn3)[C@H](C2)N1C(=O)c1cccc(F)c1-n1nccn1` (relative stereo) [Example 27, (3-fluoro-2-(2H-1,2,3-triazol-2-yl)phenyl)((1S*,3R*,4R*,6R*)-3-methyl-6-((5-(trifluoromethyl)pyridin-2-yl)oxy)-2-azabicyclo[2.2.1]heptan-2-yl)methanone], the Ki at rat orexin 1 receptor amounted to 5 nM; on human orexin 1 receptor it was 8 nM; at human orexin 2 receptor, 595 nM.
Turning to `CC1C2CC(Nc3cnc(C(F)(F)F)cn3)C(C2)N1C(=O)c1cccc(F)c1-c1ncccn1` (single isomer, unassigned) [Example 67, (R/S)-(3-fluoro-2-(pyrimidin-2-yl)phenyl)(3-methyl-6-((5-(trifluoromethyl)pyrazin-2-yl)amino)-2-azabicyclo[2.2.1]heptan-2-yl)methanone], the Ki at rat orexin 1 receptor was 16 nM; on human orexin 1 receptor, 21 nM.
`C[C@@H]1[C@H]2C[C@@H](Oc3ccc(Cl)cn3)[C@H](C2)N1C(=O)c1ccccc1-n1nccn1` [Example 121, [(1R,2R,4S,5R)-5-[(5-chloro-2-pyridyl)oxy]-2-methyl-3-azabicyclo[2.2.1]heptan-3-yl]-[2-(triazol-2-yl)phenyl]methanone]: the Ki on rat orexin 1 receptor and at human orexin 1 receptor was 3 nM each time.
Take `[2H]C1([2H])[C@H]2C[C@@H]([C@@H]1Oc1ccc(Cl)cn1)N(C(=O)c1ccccc1-n1nccn1)[C@@H]2C` [Example 195, [(1R,3R,4S,6R)-3-[(5-chloro-2-pyridyl)oxy]-2,2-dideuterio-6-methyl-5-azabicyclo[2.2.1]heptan-5-yl]-[2-(triazol-2-yl)phenyl]methanone]: the Ki is 8 nM at rat orexin 1 receptor and 4 nM at human orexin 1 receptor.

The record behind these values is US9611262B2, “Substituted 2-azabicycles and their use as orexin receptor modulators” (JANSSEN PHARMACEUTICA NV, priority 2014, dated 2017).
